Experimental data published in US3989714A, “3-Phenylhydroindoles” (priority 1974, dated 1976).
Several values for one entry are separate records, joined by “and”; a condition that tells them apart may be missing. Equal values may be shown once. Where a name gives a salt, the structure may show the parent alone.

Experiments:
[1] = tested on: Rhinovirus 2 (HGP); experiment: Antiviral activity tube method (Rightsel procedure), liquid media, HeLa cells; format: cell-based; settings: for Antiviral: concentration at which active, Day 4: 20 TCID50 (Example 7)
Source text: (§1) Compounds of the present invention show antiviral activity in concentrations of 50 to 100 γ/ml when tested in liquid media using the procedure of Rightsel (Univ. of Mich. Med. Bull. 24:222-234 (1958)) and on solid media using the Herrmann modification of the Dulbecco Technique (Proc. Nat. Acad. Sci., Wash. 38:747-752 (1952); Proc. Soc. Exp. Bio., N.Y., 103: 625-628 (1960)).
(§2) More particularly the protocol for the Rightsel procedure used is as follows:
(§3) ANTIVIRAL ACTIVITY TUBE METHOD
(§4) PURPOSE: The determination of toxicity and antiviral activity of
(§5) experimental compounds in normal and cancer cell lines
(§6) in vitro in tubes with liquid culture media.
(§7) MATERIALS: Cell Lines - cancer
(§8) HeLa - Human Carcinoma of the Cervix
(§9) Virus - Rhinovirus 2 (HGP)
Growth Medium - Basal Medium Eagle (BME) with Earle's
salts, containing 10 % fetal bovine serum,
penicillin (100 units/ml.) and
streptomycin (100 mcg./ml.)
Maintenance Medium - A 1:1 mixture of BME and Medium
199; contains 2 % fetal bovine serum.
Trypsin - (1-300) 0.25 % in Ca-free and Mg-free
Hanks' balanced salt solution (BSS)
Roller Bottles - Bellco
Tubes - Sterile 16 × 150 mm plastic screw top
(§10) Roller bottles are seeded with approximately 10^7 cells
(§11) in […] growth medium and rotated at 0.5 rpm on
(§12) the Bellco roller apparatus at 37° C until the cell
(§13) Trypsinization - Cells are resuspended in growth medium
(§14) at a concentration of […] HeLa cells/ml.
(§15) cell suspensions are gassed with CO2 to a pH of 6.8.
(§16) Sterile plastic tubes are seeded with 1.0 ml of cell
(§17) suspension and incubated in a stationary position for
(§18) two days (until cell sheet is confluent).
(§19) The compound is dissolved in distilled water at a maximum
(§20) concentration of 500 gamma/ml. Where necessary, NaOH,
(§21) HCl or ethanol is used to dissolve the material. The
(§22) pH of the final solution is adjusted as closely as
(§23) possible to pH 7.2. This stock solution is then
(§24) diluted with medium to contain appropriate concentrations
The virus is thawed rapidly at 37° C and diluted
in maintenance medium - to 10-^8 for titration and to an
estimated 10 - 100 Tissue Culture Infectious Dose50
PROCEDURE: The growth medium is decanted from the cell sheet in the
Adsorbed virus system: 0.1 ml of virus dilution is added
to each of the tubes and the tubes are rolled at 33°
(§25) for 1 hour. Cytotoxicity and control tubes are rolled
(§26) with just 0.1 ml of medium. After a 1 hour adsorption
period, 0.9 ml of the appropriate dilution of the test
compound is added to each of the tubes and the tubes
are returned to the roller apparatus.
Unadsorbed virus system: 0.1 ml of the diluted virus and
0.9 ml of the diluted test compound are added simultaneously
to a tube and the tubes rotated at 33° C.
(§27) RECORDING: HeLa cell cultures are read every day, starting on day 3
(§28) and readings are continued until culture controls have
(§29) shown a non-specific cytopathic effect (CPE) in about
(§30) 5-6 days. WI-38 cultures are read every other day,
starting with day 3, for 10-14 days.
(§31) on the degree and nature of the CPE. Viral CPE is
also recorded as 0 - 4+, depending on the percent of
(§32) the cell sheet showing virus growth. Four tubes are
(§33) used for each concentration of compound and for each
(§34) concentration of virus dilution, and the four CPE
(§35) ratings within each group are averaged.
To be considered active, a specific concentration of a test
compound must average 2 or more points below that of the
virus control. Actual TCID50 of virus used is
by method of Reed and Muench.

[2] = in vitro; format: cell-based, Human; settings: human, hela cells
Source text: as §1, §2, §3, §4, §5, §6, §7, §8, §10, §11, §12, §13, §14, §15, §16, §17, §18, §19, §20, §21, §22, §23, §24, §25, §26, §27, §28, §29, §30
(§36) Compound cytoxicity is recorded as 0 - 4+, depending
as §31, §32, §33, §34, §35

[3] = tested on: HeLa; experiment: in vitro; format: cell-based, Human
Source text: as §1, §2, §3, §4, §5, §6, §7, §8, §10, §11, §12, §13, §14, §15, §16, §17, §18, §19, §20, §21, §22, §23, §24, §25, §26, §27, §28, §29, §30, §36, §31, §32, §33, §34, §35

[4] = tested on: Rhinovirus 2 (HGP); experiment: Antiviral Activity, Solid Media (Herrmann modification of the Dulbecco technique), plaque suppression by disc, HeLa cells; format: cell-based; settings: Rhinovirus 2 HGP adsorbed, Day 5, 100 mcg disc, virus 66 PFU/ml (Example 4), 970 PFU/ml (Example 7)
Source text: as §1
(§37) The procedure for the Herrmann modification used is as follows:
(§38) TEST NAME: Antiviral Activity, Solid Media
(§39) PURPOSE: The determination of toxicity and antiviral activity
(§40) of experimental compounds in normal and cancer cell
(§41) lines as measured by plaque suppression in solid media.
(§42) MATERIALS: Cell Line - Cancer
(§43) HeLa - Human carcinoma of the cervix
as §9
Growth Medium - Basal Medium Eagle (BME) containing 10 %
fetal bovine serum, penicillin (100 units/ml)
and streptomycin (100 mcg/ml).
Trypsin - (1-300) 0.25 % trypsin in Ca-free and Mg-free
Hanks' balanced salt solution (BSS).
(1) Rhinovirus: A 1:1 mixture of BME and
Medium 199. Contains 2 % fetal bovine serum
(FBS); 30 mM MgCl2; 0.3 % Tris; 30 gamma/ml
diethylaminoethyl (DEAE) dextran and 1 %
Wash Fluid - Phosphate-buffered saline (PBS) containing
Discs - Sterile Schleicher and Schuell 1/4"
penicillin assay discs.
Plates - Falcon plastic 60 × 15 mm dishes. […]
(§44) measured across the entire diameter (including disc).
The number of plaques on titration plates are counted to […]

[5] = tested on: HeLa; experiment: Cytotoxicity, solid media (disc), zones of cytotoxicity; format: cell-based, Human; settings: Day 5, 100 mcg disc
Source text: as §1, §37, §38, §39, §40, §41, §42, §43, §10
in 250-300 ml of growth medium and rotated at 0.5 rpm on
as §12
Cells are removed from the glass surface with trypsin.
The cells are resuspended in medium to a concentration
of 2.0 × 10^5 /ml. Falcon plastic 60 × 15 mm
seeded with 5.0 ml of cell suspension and incubated for
48 hours at 37° C in Pyrex baking dishes sealed with
Water-soluble compounds are prepared in distilled water
with the aid of HCl or NaOH as necessary. Solutions
are Millipore filtered. Water insoluble compounds are
Sterile Schleicher and Schuell 1/4" penicillin assay […]
as §44

With `COc1ccc(C2CN(O)C3CCCCC23)cc1OC` (stereo not shown) [Example 4, 3-(3,4-dimethoxyphenyl)hexahydro-1-hydroxyindoline hydrochloride] the “Antiviral: concentration at which active, Day 4” value ([1]; Tube, HeLa, Rhinovirus 2 HGP nonadsorbed, virus 31 TCID50 (Example 13), 100 TCID50 (Example 4), active = averages 2 or more points below virus control, hydrochloride) was 100 µg/mL and 50 µg/mL, the “Antiviral: concentration at which inactive, Day 5” value ([1]; Tube, HeLa, Rhinovirus 2 HGP nonadsorbed, Day 5, virus 31 TCID50 (Example 13), 100 TCID50 (Example 4)) was 6.25 µg/mL and the MNTC at 96 h [2] was 100 µg/mL. The “Cytotoxicity: concentration at which toxic, Day 5” value [3] was 100-12.5, the “toxic effect on the cells” value [3] was “undetermined toxic effect on the cells was observed” and the “Antiviral, disc” value ([4]; hydrochloride) was “inactive”. For the same compound, the “Cytotoxicity, disc” value [5] was “Nontoxic”.

For `COc1ccc(C2CN(O)C3(C)CCCCC23)cc1OC` (stereo not shown) [Example 7, 3-(3,4-Dimethoxyphenyl)hexahydro-1-hydroxy-7a-methyl-indoline], the “Antiviral: concentration at which active, Day 4” value ([1]; Tube, HeLa, Rhinovirus 2 HGP nonadsorbed, virus 31 TCID50 (Example 13), 100 TCID50 (Example 4), active = averages 2 or more points below virus control) was 100 µg/mL and 50 µg/mL, the “Antiviral: concentration at which active, Day 5” value ([1]; Tube, HeLa, Rhinovirus 2 HGP nonadsorbed, Day 5, 20 TCID50, active = averages 2 or more points below virus control) was 100 µg/mL and 50 µg/mL and the “antiviral activity in the liquid system on 4th and 5th days” value ([1]; liquid system, both the 4th and 5th days of incubation) was “showed activity at two concentrations”. The MCC at 120 h [2] was 100 µg/mL, the MNTC at 96 h [2] was 100 µg/mL and the “toxic effect of undetermined origin, day 5” value [3] was “very slight toxic effect”. The “Antiviral, disc” value [4] was “inactive” and the “Cytotoxicity, disc” value [5] was “Nontoxic”.

For `COc1ccccc1C1C[N+]([O-])=C2CCCCC21.Cl` (stereo not shown) [Example 13, 3,3a,4,5,6,7-hexahydro-3-(o-methoxyphenyl)-2H-indole 1-oxide hydrochloride], the “antiviral activity after four days of incubation, liquid test” value ([1]; liquid test, four days of incubation) was “showed antiviral activity”, the MNTC at 96 h [2] was 108 µg/mL and the “Cytotoxicity: concentration at which toxic, Day 5” value [3] was 108-10.5. The “toxic effect on the cells” value [3] was “undetermined toxic effect on the cells was observed”.
